From patent US8278442B2, “Bicyclic aryl and heteroaryl compounds for the treatment of metabolic disorders” (Prosidion Limited, priority 2007, dated 2012)

How the values were obtained:
[1] = target: T1, mu-opioid receptor (Homo sapiens, UniProt P35372); assay: Competition binding assay (3H-DAMGO); details: mu-opioid receptor expressing membranes, 0.5 nM 3H-DAMGO
Protocol: Competition Binding Assays
Mu-, kappa- or delta-opioid receptor expressing membranes (5-15 μg/well) were suspended in 50 mM Tris buffer pH 7.6 containing 5 mM MgCl2 and were incubated on 96-well plates with test compound or vehicle (1% DMSO) and either 0.5 nM ^3H-DAMGO, 0.8 nM ^3H—U-69,595 or 1.1 nM ^3H-DPDPE respectively in a total volume of 200 μL for 90 min at rt (22° C.). The contents of the wells were filtered and washed 5 times with chilled 50 mM Tris buffer pH 7.6 through H2O pre-soaked GF/B filters using a Perkin Elmer Filtermate. The filters were dried and upon application of scintillant the bound radioactive content for each well determined by scintillation counting in a Wallac TriLux Microbeta scintillation counter. Non-specific binding was determined in the presence of 2 μM Naloxone. IC50 values were determined by plotting log concentration test compound against specific binding and subsequent Ki values calculated.

[2] = target: T1, mu-opioid receptor; assay: GTPγS functional binding assay; format: biochemical; details: mu-opioid receptor expressing membranes, agonist DAMGO 10 nM, 35S-GTPγS binding
Protocol: GTPγS Functional Binding Assays
Mu-, kappa- or delta-opioid receptor expressing membranes (5-20 μg/well) were suspended in 50 mM HEPES buffer pH 7.6 containing 3 mM MgCl2, 120 mM NaCl, 150 pM GTPγS, 10 μg/mL saponin and 3 μM GDP (μ-opioid receptor assay) or 5 μM GDP (κ- and δ-opioid receptor assay) and were pre-incubated on 96-well plates with test compound or vehicle (1% DMSO) in a total volume of 160 μL for 10 min at rt (22° C.). Specific agonists DAMGO (10 nM final concentration), U-50,488 (30 nM final concentration) or SNC-80 (10 nM final concentration) were added respectively and the plates pre-incubated for a further 15 min at rt (22° C.) ^35S-GTPγS at a final concentration in the assay of 150 pM was then added to provide a total volume per well of 200 μL and the plates incubated for 45 min at 30° C. The contents of the wells were filtered and washed 5 times with chilled 50 mM Tris buffer pH 7.6 through H2O pre-soaked GF/B filters using a Perkin Elmer Filtermate. The filters were dried and upon application of scintillant the bound radioactive content for each well determined by scintillation counting in a Wallac TriLux Microbeta scintillation counter. Non-specific binding was determined in the presence of 10 μM GTPγS. IC50 values were determined by plotting log concentration test compound against percentage increase over non-stimulated ^35S-GTPγS binding.

T1 sequence (P35372 whole entry, species assumed): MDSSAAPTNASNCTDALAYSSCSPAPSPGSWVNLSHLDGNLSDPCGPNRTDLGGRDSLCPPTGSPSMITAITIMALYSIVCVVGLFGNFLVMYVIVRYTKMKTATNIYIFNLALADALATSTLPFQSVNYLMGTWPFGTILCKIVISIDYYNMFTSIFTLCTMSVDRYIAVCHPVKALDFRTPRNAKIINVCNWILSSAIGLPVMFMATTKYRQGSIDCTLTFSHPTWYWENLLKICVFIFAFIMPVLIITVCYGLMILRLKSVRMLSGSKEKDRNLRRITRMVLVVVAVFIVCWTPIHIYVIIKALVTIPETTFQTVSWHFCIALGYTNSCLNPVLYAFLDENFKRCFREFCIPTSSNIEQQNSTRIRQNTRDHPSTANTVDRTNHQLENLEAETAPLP

NC(=O)c1ccc(Oc2ccc(CNC3CCOCC3)c3ccccc23)nc1 [Example 16, 6-{4-[(Tetrahydropyran-4-ylamino)methyl]naphthalen-1-yloxy}nicotinamide]
Ki [1]: < 100 nM | IC50 [2]: < 100 nM
